Measured values from patent publication US20240238299A1, “USE OF PYRROLOPYRIMIDINE COMPOUND” (GUANGZHOU JOYO PHARMATECH CO., LTD, priority 2021, published 2024).

Test system: MOG35-55-induced experimental autoimmune encephalomyelitis (EAE) mouse model
Test: MOG35-55-induced EAE mouse model, clinical scoring and incidence
Format: in vivo, C57BL/6 mice

CN(c1ncnc2[nH]ccc12)[C@@H]1CCc2cc(C#N)nn2C1 [Compound I]
1.40: EAE clinical scoring, Mean (G8, 20 mg/kg QD oral, day 17)
3 mg/kg: effective dose starting at (twice daily (BID), oral, EAE clinical symptoms)
0.70: EAE clinical scoring, Mean (G8, 20 mg/kg QD oral, day 21)
1.30: EAE clinical scoring, Mean (G8, 20 mg/kg QD oral, day 16) | EAE clinical scoring, Mean (G8, 20 mg/kg QD oral, day 18)
70%: incidence of EAE (G7, 20 mg/kg BID oral, day 17) | incidence of EAE (G7, 20 mg/kg BID oral, day 20) | incidence of EAE (G8, 20 mg/kg QD oral, day 15) | incidence of EAE (G8, 20 mg/kg QD oral, day 16) | incidence of EAE (G8, 20 mg/kg QD oral, day 18) | incidence of EAE (G8, 20 mg/kg QD oral, day 19)
0.30: EAE clinical scoring, Mean (G6, 10 mg/kg BID oral, day 27) | EAE clinical scoring, Mean (G7, 20 mg/kg BID oral, day 13) | EAE clinical scoring, Mean (G7, 20 mg/kg BID oral, day 24) | EAE clinical scoring, Mean (G7, 20 mg/kg BID oral, day 25) | EAE clinical scoring, Mean (G7, 20 mg/kg BID oral, day 26) | EAE clinical scoring, Mean (G7, 20 mg/kg BID oral, day 27) | EAE clinical scoring, Mean (G8, 20 mg/kg QD oral, day 24) | EAE clinical scoring, Mean (G8, 20 mg/kg QD oral, day 25) | EAE clinical scoring, Mean (G8, 20 mg/kg QD oral, day 26) | EAE clinical scoring, Mean (G8, 20 mg/kg QD oral, day 27)
60%: incidence of EAE (G7, 20 mg/kg BID oral, day 15) | incidence of EAE (G7, 20 mg/kg BID oral, day 16) | incidence of EAE (G7, 20 mg/kg BID oral, day 21)
50%: incidence of EAE (G7, 20 mg/kg BID oral, day 14) | incidence of EAE (G8, 20 mg/kg QD oral, day 14) | incidence of EAE (G8, 20 mg/kg QD oral, day 20) | incidence of EAE (G8, 20 mg/kg QD oral, day 21)
0.20: EAE clinical scoring, Mean (G8, 20 mg/kg QD oral, day 13)
0.90: EAE clinical scoring, Mean (G7, 20 mg/kg BID oral, day 16) | EAE clinical scoring, Mean (G7, 20 mg/kg BID oral, day 20)
0.60: EAE clinical scoring, Mean (G7, 20 mg/kg BID oral, day 14) | EAE clinical scoring, Mean (G8, 20 mg/kg QD oral, day 14)
40%: incidence of EAE (G8, 20 mg/kg QD oral, day 22) | incidence of EAE (G8, 20 mg/kg QD oral, day 23)
0.00: EAE clinical scoring, Mean (G7, 20 mg/kg BID oral, day 0) | EAE clinical scoring, Mean (G7, 20 mg/kg BID oral, day 2) | EAE clinical scoring, Mean (G7, 20 mg/kg BID oral, day 4) | EAE clinical scoring, Mean (G7, 20 mg/kg BID oral, day 7) | EAE clinical scoring, Mean (G7, 20 mg/kg BID oral, day 9) | EAE clinical scoring, Mean (G7, 20 mg/kg BID oral, day 11) | EAE clinical scoring, Mean (G7, 20 mg/kg BID oral, day 12) | EAE clinical scoring, Mean (G8, 20 mg/kg QD oral, day 0) | EAE clinical scoring, Mean (G8, 20 mg/kg QD oral, day 2) | EAE clinical scoring, Mean (G8, 20 mg/kg QD oral, day 4) | EAE clinical scoring, Mean (G8, 20 mg/kg QD oral, day 7) | EAE clinical scoring, Mean (G8, 20 mg/kg QD oral, day 9) | EAE clinical scoring, Mean (G8, 20 mg/kg QD oral, day 11) | EAE clinical scoring, Mean (G8, 20 mg/kg QD oral, day 12)
10%: incidence of EAE (G7, 20 mg/kg BID oral, day 24) | incidence of EAE (G7, 20 mg/kg BID oral, day 25) | incidence of EAE (G7, 20 mg/kg BID oral, day 26) | incidence of EAE (G7, 20 mg/kg BID oral, day 27)
0.80: EAE clinical scoring, Mean (G7, 20 mg/kg BID oral, day 15) | EAE clinical scoring, Mean (G7, 20 mg/kg BID oral, day 21) | EAE clinical scoring, Mean (G8, 20 mg/kg QD oral, day 20)
80%: incidence of EAE (G7, 20 mg/kg BID oral, day 18) | incidence of EAE (G7, 20 mg/kg BID oral, day 19) | incidence of EAE (G8, 20 mg/kg QD oral, day 17)
1.10: EAE clinical scoring, Mean (G7, 20 mg/kg BID oral, day 18) | EAE clinical scoring, Mean (G7, 20 mg/kg BID oral, day 19) | EAE clinical scoring, Mean (G8, 20 mg/kg QD oral, day 15) | EAE clinical scoring, Mean (G8, 20 mg/kg QD oral, day 19)
1.00: EAE clinical scoring, Mean (G7, 20 mg/kg BID oral, day 17)
0.40: EAE clinical scoring, Mean (G8, 20 mg/kg QD oral, day 22) | EAE clinical scoring, Mean (G8, 20 mg/kg QD oral, day 23)
20%: incidence of EAE (G8, 20 mg/kg QD oral, day 13)
30%: incidence of EAE (G6, 10 mg/kg BID oral, day 27) | incidence of EAE (G7, 20 mg/kg BID oral, day 13) | incidence of EAE (G7, 20 mg/kg BID oral, day 22) | incidence of EAE (G7, 20 mg/kg BID oral, day 23) | incidence of EAE (G8, 20 mg/kg QD oral, day 24) | incidence of EAE (G8, 20 mg/kg QD oral, day 25) | incidence of EAE (G8, 20 mg/kg QD oral, day 26) | incidence of EAE (G8, 20 mg/kg QD oral, day 27)
0.50: EAE clinical scoring, Mean (G7, 20 mg/kg BID oral, day 22) | EAE clinical scoring, Mean (G7, 20 mg/kg BID oral, day 23)
0%: incidence of EAE (G7, 20 mg/kg BID oral, day 0) | incidence of EAE (G7, 20 mg/kg BID oral, day 2) | incidence of EAE (G7, 20 mg/kg BID oral, day 4) | incidence of EAE (G7, 20 mg/kg BID oral, day 7) | incidence of EAE (G7, 20 mg/kg BID oral, day 9) | incidence of EAE (G7, 20 mg/kg BID oral, day 11) | incidence of EAE (G7, 20 mg/kg BID oral, day 12) | incidence of EAE (G8, 20 mg/kg QD oral, day 0) | incidence of EAE (G8, 20 mg/kg QD oral, day 2) | incidence of EAE (G8, 20 mg/kg QD oral, day 4) | incidence of EAE (G8, 20 mg/kg QD oral, day 7) | incidence of EAE (G8, 20 mg/kg QD oral, day 9) | incidence of EAE (G8, 20 mg/kg QD oral, day 11) | incidence of EAE (G8, 20 mg/kg QD oral, day 12)
